Measurements published in patent US20100190794A1, “Herbicidally Active Composition” (BASF SE, priority 2007, published 2010).

How the values were obtained:
Assay in all cases: greenhouse test, pre-emergence treatment
[1] = test system: LAMPU; type: in vivo, Lamium purpureum; settings: 125 g/ha a.s., Use Example 11
From the text: (§1) The culture containers used were plastic pots containing loamy sand with approximately 3.0% of humus as substrate. The seeds of the test plants were sown separately for each species.
(§2) For the pre-emergence treatment, the active compounds, suspended or emulsified in water, were applied directly after sowing by means of finely distributing nozzles. The containers were irrigated gently to promote germination and growth and subsequently covered with transparent plastic hoods until the plants had rooted. This cover caused uniform germination of the test plants unless this was adversely affected by the active compounds.
(§3) Depending on the species, the plants were kept at 10-25° C. and 20-35° C., respectively. The test period extended over 2 to 4 weeks. During this time, the plants were tended and their response to the individual treatments was evaluated.
(§4) Evaluation was carried out using a scale from 0 to 100. 100 means no emergence of the plants, or complete destruction of at least the above-ground parts, and 0 means no damage or normal course of growth. Good herbicidal activity is given at values of at least 70, and very good herbicidal activity is given at values of at least 85.
(§5) The respective stated components A and B, and if appropriate, C were formulated as a 5% by weight or 10% by weight strength emulsion concentrate or a commercially available formulation of component B was used and, with addition of the amount of solvent system, introduced into the spray liquor used for applying the active compound. In the examples, the solvent used was water.
(§6) The test period extended over 20 or 21 days. During this time, the plants were tended, and their reactions to the treatment with active compound was monitored.
(§7) What was evaluated was the damage by the chemical compositions using a scale of from 0 to 100%, in comparison to the untreated control plants. 0 means no damage, and 100 means complete destruction of the plants.
(§8) In the examples below, using the method of S. R. Colby (1967) “Calculating synergistic and antagonistic responses of herbicide combinations”, Weeds 15, p. 22 ff., the value E, which is expected if the activity of the individual active compounds is only additive, was calculated.
(§9) where X=percent activity using active compound A at an application rate a; Y=percent activity using active compound B at an application rate b; E=expected activity (in %) by A+B at application rates a+b.
(§10) If the value found in experiments is higher than the value E calculated according to Colby, a synergistic effect is present.

[2] = test system: POAAN; type: in vivo, Poa annua
From the text: as §1, §2, §3, §4, §5, §6, §7, §8, §9, §10

[3] = test system: STEME; type: in vivo, Stellaria media; settings: Use Example 2
From the text: as §1, §2, §3, §4, §5, §6, §7, §8, §9, §10

[4] = test system: CCHEC; type: in vivo, Cenchrus echinatus
From the text: as §1, §2, §3, §4, §5, §6, §7, §8, §9, §10

[5] = test system: SETLU; type: in vivo, Setaria glauca; settings: for Herbicidal action in % after 21 days against SETLU: Use Example 9
From the text: as §1, §2, §3, §4, §5, §6, §7, §8, §9, §10

[6] = test system: SETFA; type: in vivo, Setaria faberi
From the text: as §1, §2, §3, §4, §5, §6, §7, §8, §9, §10

[7] = test system: AVEFA; type: in vivo, Avena fatua; settings: Use Example 6
From the text: as §1, §2, §3
as §4, with “85. […]” for “85.”
as §6
(§11) What was evaluated was the damage by the chemical compositions using a scale of from 0 to 100%, in comparison to the untreated control plants. […]
(§12) In the examples below, using the method of S. R. Colby (1967) “Calculating synergistic and antagonistic responses of herbicide combinations”, Weeds 15, p. 22 ff., the value E, which is expected if the activity of the individual active compounds is only additive, was calculated. […]
as §10

[8] = test system: MATIN; type: in vivo, Matricaria inodora; settings: Use Example 2
From the text: as §1, §2, §3, §4, §5, §6, §7, §8, §9, §10

[9] = test system: SETVI; type: in vivo, Setaria viridis; settings: 125 g/ha a.s., Use Example 11
From the text: as §1, §2
Depending on the species, the plants were kept at 10-25° C. and 20-35° C., respectively. […] During this time, the plants were tended and their response to the individual treatments was evaluated. […]
as §6, §11, §12

[10] = test system: ECHCG; type: in vivo, Echinochloa crus-galli; settings: Use Example 2
From the text: as §1, §2, §3, §4, §5, §6, §7, §8, §9, §10

[11] = test system: PANDI; type: in vivo, Panicum dichotomiflorum; settings: 62.5 g/ha a.s., Use Example 3
From the text: as §1, §2, §3
as §4, with “85. […]” for “85.”
as §6, §11, §12, §10

[12] = test system: BRAPL; type: in vivo, Brachiaria plantaginea
From the text: as §1, §2, §3, §4, §5, §6, §7, §8, §9, §10

CN1C(=O)C(C)(Cc2ccccc2)N(C)C(=O)C1=Cc1ccccc1C#N (stereo not drawn) [Example 20, 2-[5-Benzyl-1,4,5-trimethyl-3,6-dioxopiperazin-2-ylidenemethyl]benzo-nitrile]
Herbicidal action in % after 21 days against LAMPU [1]: 75%
Herbicidal action in % after 20 days against POAAN ([2]; 125 g/ha a.s., Use Example 7): 60%
Herbicidal action in % after 20 days against POAAN ([2]; 125 g/ha a.s., Use Example 15): 60%
Herbicidal action in % after 20 days against POAAN ([2]; 250 g/ha a.s., Use Example 6): 85%
Herbicidal action in % after 20 days against POAAN ([2]; 250 g/ha a.s., Use Example 7): 85%
Herbicidal action in % after 20 days against POAAN ([2]; 250 g/ha a.s., Use Example 15): 85%
Herbicidal action in % after 20 days against POAAN ([2]; 500 g/ha a.s., Use Example 6): 95%
Herbicidal action in % after 20 days against STEME ([3]; 62.5 g/ha a.s.): 0%
Herbicidal action in % after 20 days against STEME ([3]; 125 g/ha a.s.): 20%
Herbicidal action in % after 20 days against STEME ([3]; 250 g/ha a.s.): 50%
Herbicidal action in % after 21 days against CCHEC ([4]; 62.5 g/ha a.s., Use Example 3): 20%
Herbicidal action in % after 20 days against CCHEC ([4]; 250 g/ha a.s., Use Example 16): 90%
Herbicidal action in % after 21 days against SETLU ([5]; 125 g/ha a.s.): 90%
Herbicidal action in % after 20 days against SETLU ([5]; 125 g/ha a.s., Use Example 14): 90%
Herbicidal action in % after 21 days against SETLU ([5]; 250 g/ha a.s.): 100%
Herbicidal action in % after 20 days against SETLU ([5]; 250 g/ha a.s., Use Example 16): 98%
Herbicidal action in % after 20 days against SETFA ([6]; 125 g/ha a.s., Use Example 12): 45%
Herbicidal action in % after 20 days against SETFA ([6]; 125 g/ha a.s., Use Example 14): 95%
Herbicidal action in % after 20 days against SETFA ([6]; 250 g/ha a.s., Use Example 12): 80%
Herbicidal action in % after 20 days against AVEFA ([7]; 250 g/ha a.s.): 20%
Herbicidal action in % after 20 days against AVEFA ([7]; 500 g/ha a.s.): 40%
Herbicidal action in % after 20 days against MATIN ([8]; 62.5 g/ha a.s.): 0%
Herbicidal action in % after 20 days against MATIN ([8]; 125 g/ha a.s.): 30%
Herbicidal action in % after 20 days against MATIN ([8]; 250 g/ha a.s.): 90%
Herbicidal action in % after 21 days against SETVI [9]: 80%
Herbicidal action in % after 20 days against ECHCG ([10]; 62.5 g/ha a.s.): 70%
Herbicidal action in % after 20 days against ECHCG ([10]; 125 g/ha a.s.): 95%
Herbicidal action in % after 20 days against ECHCG ([10]; 250 g/ha a.s.): 100%
Herbicidal action in % after 21 days against PANDI [11]: 95%
Herbicidal action in % after 21 days against BRAPL ([12]; 31.25 g/ha a.s., Use Example 8): 20%
Herbicidal action in % after 20 days against BRAPL ([12]; 125 g/ha a.s., Use Example 5): 70%
Herbicidal action in % after 21 days against BRAPL ([12]; 125 g/ha a.s., Use Example 9): 80%
Herbicidal action in % after 20 days against BRAPL ([12]; 125 g/ha a.s., Use Example 12): 55%
Herbicidal action in % after 20 days against BRAPL ([12]; 250 g/ha a.s., Use Example 5): 85%
Herbicidal action in % after 21 days against BRAPL ([12]; 250 g/ha a.s., Use Example 9): 95%
Herbicidal action in % after 20 days against BRAPL ([12]; 250 g/ha a.s., Use Example 12): 55%
